Measurements as given in PubChem BioAssay AID489022 (Sanford-Burnham Center for Chemical Genomics, 2010).
Activity calls are given as the source filed them. No rule for the calls is given here.

Test system: HEK-293T NF-kB luciferase reporter, luminescence counterscreen
Test: NF-kB reporter suppression in HEK-293T cells – luminescence, B-cell screen hits, counter-screen for BCR NF-kB inhibitor project, dose response (AID 489022)

Row | SMILES | IC50
1 | CCN(CC)S(=O)(=O)c1ccc(N2CCOCC2)c(NC(=O)c2[nH]c(C)c(C(C)=O)c2C)c1 | 5.92 µM
2 | O=C(CN1C(=O)c2ccccc2S1(=O)=O)c1ccc(OC(F)F)cc1 | 5.26 µM
3 | CCN1C(=O)c2cccc3c(S(=O)(=O)NCC4CCCO4)ccc1c23 (stereo not drawn) | 54.5 µM (inactive)
4 | Cc1nc2cc(-c3ccc(Cl)cc3)nn2c(C)c1CCC(=O)NC(C)c1ccc2c(c1)OCCO2 (stereo not drawn) | 11.5 µM
5 | CCCNC(=O)CSCc1nc(-c2ccc(SC)cc2)oc1C | 38.5 µM (inactive)
6 | CC1=CC(C)(C)Nc2ccc(OC(=O)CN3C(=O)c4ccccc4C3=O)cc21 | 9.25 µM
7 | CCOC(=O)N1CCN(CC(=O)Nc2ccc([N+](=O)[O-])cc2C(=O)Nc2ccccc2F)CC1 | 29.4 µM (inactive)
8 | OCCN1CCN(C(=S)c2ccc(-c3ccccc3)cc2)CC1 | 31.6 µM (inactive)
9 | COc1ccc(/C=C2\SC(=S)N(CCC(=O)Nc3cccc(O)c3)C2=O)cc1 | > 80 µM (inactive)
10 | Cc1nn(C(C)(C)C)c(OC(=O)c2ccc(Br)o2)c1Sc1ccccc1 | 53.8 µM (inactive)
11 | CCC(C)[C@H](N)c1nnc(SCC(=O)c2ccc(Cl)cc2)o1 (stereo partly drawn) | > 80 µM (inactive)
12 | N=c1c(C(=O)NC2CCCC2)cc2c(=O)n3ccccc3nc2n1CCN1CCOCC1 | > 80 µM (inactive)
13 | CCN1CCN(C(=O)CSc2cc(=O)n(CC)c3ccccc23)CC1 | > 80 µM (inactive)
14 | Cc1cc(OCC(=O)NC2CC2)c2c(C)c(C)c(=O)oc2c1 | > 80 µM (inactive)
15 | CCn1c(=O)cc(SCC(=O)N2CCCCC2)c2ccccc21 | > 80 µM (inactive)
16 | Cc1cc2ccccn2c1C(=O)c1ccc(NN)c([N+](=O)[O-])c1 | 30.5 µM (inactive)
17 | CC(C)(C)c1ccc(-c2noc(CCC(=O)N3CCOCC3)n2)cc1 | 35 µM (inactive)
18 | Cc1cc(C)c2nc(NC(=O)C3CSC4(C)CCC(=O)N34)sc2c1 (stereo not drawn) | > 80 µM (inactive)
19 | Cc1ccc(-c2nn3c(C)nnc3c3ccccc23)cc1S(=O)(=O)N1CCN(CCO)CC1 | 22.4 µM (inactive)
20 | CCOC(=O)C(=CNc1cc(C)ccc1C)C(=O)OCC | 18.9 µM
21 | CCn1c(=O)cc(SCC(=O)N2CCC3(CC2)OCCO3)c2ccccc21 | > 80 µM (inactive)
22 | COc1ccc(OC)c(S(=O)(=O)Nc2ccc(-c3ccc4nnc(C)n4n3)cc2)c1 | 32.2 µM (inactive)
23 | CCCCCOc1ccc(NC(=O)C(=O)NCCCn2ccnc2)cc1 | 42.8 µM (inactive)
24 | Fc1ccc(C2=Nn3c(nnc3-c3n[nH]c4c3CCC4)SC2)cc1 | 16.7 µM
25 | CCn1c(=O)cc(OCC(=O)NCc2ccc(C)o2)c2ccccc21 | > 80 µM (inactive)

Row | SMILES | IC50
26 | ClCc1nnc(-c2ccccc2)o1 | > 80 µM (inactive)
27 | COc1ccc(C(=O)Nc2ccccc2C(=O)NCc2ccco2)cc1OC | > 80 µM (inactive)
28 | Cc1ccc(C(=O)N2CCCC(c3ccc(Cl)cc3)=N2)cc1 | 36.5 µM (inactive)
29 | COc1ccc(-c2ccc(C)cc2)cc1[C@H]1[C@H]2C=CC[C@@H](C)[C@@H]2C(=O)N1Cc1ccccc1 | 48.4 µM (inactive)
30 | CC(C)(C)c1ccc(-c2noc(CCC(=O)Nc3cccnc3)n2)cc1 | 0.55 µM
31 | CCc1ccc2[nH]c3nc(N/N=C/c4cccc(O)c4)nnc3c2c1 | > 80 µM (inactive)
32 | O=c1cccc2c1c1cc[nH]c3ccc(=O)n2c31 | 2.93 µM
33 | Cc1ccc(Sc2cc(NCCCO)c([N+](=O)[O-])c3nonc23)cc1 | > 80 µM (inactive)
34 | COc1ccc(-c2ccc(N(C)C)cc2)cc1[C@H]1[C@H]2C=CC[C@@H](C)[C@@H]2C(=O)N1Cc1ccccc1 | > 80 µM (inactive)
35 | O=C(CCCN1C(=O)/C(=C/c2ccccc2Cl)SC1=S)NNC(=O)c1ccc(Cl)cc1 | > 80 µM (inactive)
36 | CNC(=O)c1cccn(Cc2ccc(C(F)(F)F)cc2)c1=O | 35.5 µM (inactive)
37 | COc1ccccc1/C=C1\SC(=S)N(CCC(=O)Nc2cc(C)on2)C1=O | > 80 µM (inactive)
38 | COc1ccc(-c2noc(N3CCC(C(=O)Nc4cccc(OC)c4)CC3)n2)cc1 | 17.9 µM
39 | CNC(=O)c1cc(Nc2nnc(-c3ccc(O)cc3)c3ccccc23)ccc1OC | > 80 µM (inactive)
40 | Cc1ccc(O)c(NC(=O)COc2cc(C)ccc2C)c1 | > 80 µM (inactive)
41 | CCc1ccc(/C=C2\SC(=S)N(CCC(=O)NC3=NCCS3)C2=O)cc1 | > 80 µM (inactive)
42 | Cc1cc(C)cc(NC(=O)Nc2ccc(NC(=O)c3ccccc3O)cc2)c1 | > 80 µM (inactive)
43 | CCN(CC)CCOC(=O)c1ccc(NC(=O)CCCN2C(=O)S/C(=C/c3ccc(OC)cc3)C2=S)cc1 | 11.6 µM
44 | CCOc1ccc(S(=O)(=O)NCc2ccncc2)cc1NC(=O)c1ccccc1 | 1.37 µM
45 | CCN1C(=O)c2cccc3c(S(=O)(=O)Nc4ccccc4)ccc1c23 | 18.7 µM
46 | CCOc1cc2nc(-c3ccc(OC)c(OC)c3)nc(N3CCOCC3)c2cc1OC | 7.5 µM
47 | CN(C)S(=O)(=O)c1ccc(NC(=O)N2CCN(c3ccccc3)CC2)cc1 | > 80 µM (inactive)
48 | CCOc1cc(/C=N\Nc2nc(Nc3ccccc3)nc(N3CCOCC3)n2)ccc1OC(=O)c1ccco1 | > 80 µM (inactive)
49 | Cc1ccccc1Nc1nc(Cl)c(C=O)s1 | > 80 µM (inactive)
50 | CC(C)(C)c1ccc(-c2cc(N)n[nH]2)cc1 | > 80 µM (inactive)

Row | SMILES | IC50
51 | CCNC(=O)CCc1nc(-c2ccc(C(C)(C)C)cc2)no1 | 34.9 µM (inactive)
52 | CCn1c(=O)cc(SCC(=O)N2CCN(C(=O)c3ccco3)CC2)c2ccccc21 | 40.9 µM (inactive)
53 | CC(=O)c1cccc(S(=O)(=O)Nc2cc(C(F)(F)F)ccc2N2CCOCC2)c1 | > 80 µM (inactive)
54 | CCOc1ccc(-c2nc(CSCC(=O)NCc3ccco3)c(C)o2)cc1 | 18.9 µM
55 | C(=N\Nc1nc(Nc2ccccc2)nc(Nc2ccccc2)n1)/c1cccnc1 | > 80 µM (inactive)
56 | Cc1nn(C)c(C)c1CN(C)S(=O)(=O)c1ccc2ccccc2c1 | 0.36 µM
57 | Cc1nnc2c3ccccc3c(-c3ccccc3)nn12 | 61.4 µM (inactive)
58 | CC(C)c1ccc(/C=C2\SC(=S)N(CCC(=O)N3CCCCC3CCO)C2=O)cc1 (stereo not drawn) | 17.5 µM
59 | CCN(CC(=O)Nc1c(F)cccc1F)C(=O)C1(c2ccccc2)CC1 | > 80 µM (inactive)
60 | Cc1ccc(CSc2nnc(SCC(=O)N/N=C/C=C/c3ccccc3[N+](=O)[O-])s2)cc1 | 34.8 µM (inactive)
61 | Cc1cc(=O)[nH]c2c(C)cc(S(=O)(=O)N3CCCCC3)cc12 | > 80 µM (inactive)
62 | CCC(CO)Oc1cc(NCc2ccccc2O)c2ncn(C(C)C)c2c1 (stereo not drawn) | 4.79 µM
63 | CNC(=O)CSc1nc2nn(-c3ccccc3)c(=O)c-2c2n1CCCCC2 | > 80 µM (inactive)
64 | O=S(=O)(NCc1ccncc1)c1ccc(Br)s1 | 0.86 µM
65 | N=c1ccn2c(n1)OC1C(O)C(CO)OC12 (stereo not drawn) | > 80 µM (inactive)
66 | O=C(NNC(=O)C12CC3CC(CC(Br)(C3)C1)C2)c1ccccc1F | > 80 µM (inactive)
67 | COC(=O)C(C)Oc1cc(C)cc2oc(=O)c3c(c12)CCC3 (stereo not drawn) | 28.6 µM (inactive)
68 | Cc1[nH]c2ccccc2c1/C=N/Nc1nc(Nc2ccc(F)cc2)nc(N2CCOCC2)n1 | > 80 µM (inactive)
69 | CCN(CC)C(=O)c1ccc(S(=O)(=O)Cc2ccc(C)cc2)c([N+](=O)[O-])c1 | 34.7 µM (inactive)
70 | CCc1ccc2nc(Nc3nc(COC)cc(=O)[nH]3)nc(C)c2c1 | 46.4 µM (inactive)
71 | O=C(N/N=C/c1cccnc1)c1cc(-c2ccccc2OCc2ccccc2)n[nH]1 | 12.7 µM
72 | Cc1ccc(C)c(-n2nnnc2Sc2nnnn2-c2ccccc2)c1 | 6.7 µM
73 | Cc1cc(OCC(=O)N2CCC(C(N)=O)CC2)c2c3c(c(=O)oc2c1)CCCC3 | > 80 µM (inactive)
74 | Cc1ccc(/C=C2\SC(=S)N(CCCC(=O)Nc3ccccn3)C2=O)cc1 | 32.1 µM (inactive)
75 | O=C1CCCc2c1[nH]c1ccc(CN3CCCCC3)cc21 | > 80 µM (inactive)

Row | SMILES | IC50
76 | COc1ccc(S(=O)(=O)Nc2cc3c(C(C)=O)c(C)oc3c3ccccc23)cc1 | > 80 µM (inactive)
77 | Cc1ccc(C(=O)NNC(=O)CCCN2C(=O)/C(=C/c3ccccc3Cl)SC2=S)cc1 | 30.8 µM (inactive)
78 | CC1CCc2c(sc3nc(C(C)(C)C)nc(N4CCN(C(=O)CCl)CC4)c23)C1 (stereo not drawn) | 30.6 µM (inactive)
79 | O=C1CCC2S/C(=C/Nc3ccc(C(F)(F)F)cc3)C(=O)N12 (stereo not drawn) | 3.77 µM
80 | Cc1cc(OCC(=O)Nc2ccc(CCO)cc2)c2c(C)c(C)c(=O)oc2c1 | > 80 µM (inactive)
81 | O=C(Oc1cccc(/C=N/Nc2nc(Nc3ccccc3)nc(N3CCOCC3)n2)c1)c1ccco1 | > 80 µM (inactive)
82 | COc1ccc(-c2nn(C)c(=O)c3ccccc23)cc1NS(C)(=O)=O | 43.9 µM (inactive)
83 | COc1ccc(N(CC(=O)N2CCN(c3ccc(Cl)cc3)CC2)S(=O)(=O)c2c(C)n[nH]c2C)cc1 | 15.3 µM
84 | COc1ccccc1/C=C1\SC(=S)N(CCC(=O)Nc2nnc(C)s2)C1=O | > 80 µM (inactive)
85 | COc1ccc(NC(=O)c2nnn(Cc3cccc(F)c3)c2N)c(OC)c1 | > 80 µM (inactive)
86 | O=C(Cc1cccc2ccccc12)Nc1ccc(-c2cc3ccccc3oc2=O)cc1 | > 80 µM (inactive)
87 | C[C@H]1CCC/C=C/C2C[C@H](O)CC2[C@H](O)/C=C/C(=O)O1 (stereo partly drawn) | 0.29 µM
88 | COc1cc(/C(C)=N\NC(N)=S)cc(OC)c1OC | > 80 µM (inactive)
89 | Cn1c(=O)cc(Nc2ccccc2)c2c(=O)n(-c3ccccc3)c(=O)n(-c3ccccc3)c21 | 79.1 µM (inactive)
90 | COc1ccc(C(C(=O)NC2CCCCC2)N(C(=O)CCl)c2ccc(Cl)cc2)cc1 (stereo not drawn) | 25.1 µM (inactive)
91 | CC(=O)c1cn(CCOc2cc(C)ccc2C)c2ccccc12 | 0.29 µM
92 | CC1=CC(C)(C)Nc2ccc(OC(=O)C(C)N3C(=O)c4ccccc4C3=O)cc21 (stereo not drawn) | 11.5 µM
93 | C=CCOc1ccc(NC(=O)C(=O)NCCCn2ccnc2)cc1 | > 80 µM (inactive)
94 | COc1cc(OC)cc(-c2cc3nc(C)c(CCC(=O)Nc4nc(C)cs4)c(C)n3n2)c1 | > 80 µM (inactive)
95 | O=C(CCCN1C(=O)/C(=C/c2ccccc2Cl)SC1=S)NNC(=O)c1ccc(Cl)cc1Cl | > 80 µM (inactive)
96 | O=C(CCCN1C(=O)/C(=C/c2ccccc2Cl)SC1=S)Nc1cccnc1 | 28.7 µM (inactive)
97 | O=C(Nc1cccc(Oc2ccc3c(c2)C(=O)NC3=O)c1)c1cccs1 | 28.8 µM (inactive)
98 | O=C(Nc1ccc(NC(=O)c2cc3ccccc3o2)cc1)c1ccc2c(c1)OCCO2 | > 80 µM (inactive)
